# From patent publication US11053204B2, “Pyrimidinyloxy benzene derivatives as herbicides” (FMC Corporation, priority 2015, dated 2021)
# Key:
# Type in all cases: in vivo
# [1] = test system: sedge, umbrella (small-flower umbrella sedge, Cyperus difformis); assay: Test B flooded paddy test, plant response rating; conditions: 250 g ai/ha; Flood; scale of 0 to 100 where 0 is no effect and 100 is complete control; 13 to 15 days
# How it was run: (§1)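 Greenhouse pots flooded to 3 cm above soil at time of treatment received compound via the water, which stayed at that level.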
# [2] = test system: barnyardgrass (Echinochloa crus-galli); assay: Test B flooded paddy test, plant response rating; conditions: 250 g ai/ha; Flood; scale of 0 to 100 where 0 is no effect and 100 is complete control; 13 to 15 days
# How it was run: as §1
# rice (Oryza sativa) = assay: Test B flooded paddy test, plant response rating; conditions: 250 g ai/ha; Flood; scale of 0 to 100 where 0 is no effect and 100 is complete control; 13 to 15 days
# How it was run: as §1
# [3] = test system: ducksalad (Heteranthera limosa); assay: Test B flooded paddy test, plant response rating; conditions: 250 g ai/ha; Flood; scale of 0 to 100 where 0 is no effect and 100 is complete control; 13 to 15 days
# How it was run: as §1
# [4] = test system: giant foxtail (Setaria faberii); assay: Test A preemergence, visual injury rating
# How it was run: (§2)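 Scoring: eye-based comparison with untreated controls, 0 for no effect through 100 for complete control, at about day 10. Treatments: directed soil spray preemergence; foliar spray postemergence on 2–10 cm plants at the one- to two-leaf stage. Medium: loam soil with sand.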
# kochia (Kochia scoparia) [5] = assay: Test A preemergence, visual injury rating
# How it was run: as §2
# [6] = test system: Italian ryegrass (Lolium multiflorum); assay: Test A preemergence, visual injury rating
# How it was run: as §2
# [7] = test system: barnyardgrass (Echinochloa crus-galli); assay: Test A preemergence, visual injury rating
# How it was run: as §2
# [8] = test system: ragweed (common ragweed, Ambrosia elatior); assay: Test A preemergence, visual injury rating
# How it was run: as §2
# [9] = test system: pigweed (Amaranthus retroflexus); assay: Test A preemergence, visual injury rating
# How it was run: as §2
# [10] = test system: giant foxtail (Setaria faberii); assay: Test A postemergence, visual injury rating
# How it was run: as §2
# kochia (Kochia scoparia) [11] = assay: Test A postemergence, visual injury rating
# How it was run: as §2
# corn (Zea mays) = assay: Test A postemergence, visual injury rating
# How it was run: as §2
# [12] = test system: Italian ryegrass (Lolium multiflorum); assay: Test A postemergence, visual injury rating
# How it was run: as §2
# [13] = test system: barnyardgrass (Echinochloa crus-galli); assay: Test A postemergence, visual injury rating; conditions: 0 to 100 scale, 0 is no effect, 100 is complete control, approximately 10 days
# How it was run: as §2
# [14] = test system: ragweed (common ragweed, Ambrosia elatior); assay: Test A postemergence, visual injury rating
# How it was run: as §2
# [15] = test system: pigweed (Amaranthus retroflexus); assay: Test A postemergence, visual injury rating
# How it was run: as §2
# [16] = test system: wheat (Triticum aestivum); assay: Test A postemergence, visual injury rating
# How it was run: as §2
# [17] = test system: blackgrass (Alopecurus myosuroides); assay: Test A postemergence, visual injury rating
# How it was run: as §2
# [18] = test system: galium (catchweed bedstraw, Galium aparine); assay: Test A postemergence, visual injury rating
# How it was run: as §2
# [19] = 31 g ai/ha, 0 to 100 scale, 0 no effect, 100 complete control
# [20] = 125 g ai/ha, 0 to 100 scale (0 no effect, 100 complete control)
# [21] = 31 g ai/ha, 0 to 100 scale, 0 is no effect, 100 is complete control, approximately 10 days
# [22] = 125 g ai/ha, 0 to 100 scale, 0 is no effect, 100 is complete control, approximately 10 days
# [23] = 31 g ai/ha, 0 to 100 scale (0 no effect, 100 complete control)
SMILES,"Plant response rating, Sedge, Umbrella [1]","Plant response rating, Barnyardgrass [2]","Plant response rating, Rice (rice (Oryza sativa))","Plant response rating, Ducksalad [3]","Plant response rating, Foxtail, Giant [4, 19]","Plant response rating, Foxtail, Giant [4, 20]","Plant response rating, Kochia (kochia (Kochia scoparia) [5]; [19])","Plant response rating, Kochia (kochia (Kochia scoparia) [5]; [20])","Plant response rating, Ryegrass, Italian [6, 19]","Plant response rating, Ryegrass, Italian [6, 20]","Plant response rating, Barnyardgrass [7, 19]","Plant response rating, Barnyardgrass [7, 20]","Plant response rating, Ragweed [8, 19]","Plant response rating, Ragweed [8, 20]","Plant response rating, Pigweed [9, 19]","Plant response rating, Pigweed [9, 20]","Foxtail, Giant plant response rating [10, 22]",Kochia plant response rating (kochia (Kochia scoparia) [11]; [22]),Corn plant response rating (corn (Zea mays); [22]),"Ryegrass, Italian plant response rating [12, 22]",further results
O=C(OCCC1CC1)c1c(Br)cccc1Oc1ncc(Cl)cn1 [Compound 123],95,40,35,95,40,100,0,10,0,20,20,70,0,0,0,80,50,90,10,20,"Foxtail, Giant plant response rating [10, 21]: 20; Kochia plant response rating (kochia (Kochia scoparia) [11]; [21]): 50; Corn plant response rating (corn (Zea mays); [21]): 10; Ryegrass, Italian plant response rating [12, 21]: 0; Barnyardgrass plant response rating ([13]; 31 g ai/ha): 10; Barnyardgrass plant response rating ([13]; 125 g ai/ha): 50; Ragweed plant response rating [14, 21]: 0; Ragweed plant response rating [14, 22]: 10; Pigweed plant response rating [15, 21]: 70; Pigweed plant response rating [15, 22]: 100; Wheat plant response rating [16, 21]: 0; Wheat plant response rating [16, 22]: 0; Blackgrass plant response rating [17, 21]: 10; Blackgrass plant response rating [17, 22]: 50; Galium plant response rating [18, 21]: 90; Galium plant response rating [18, 22]: 100"
FC(F)(F)CCCCCc1c(Cl)cccc1Oc1ncc(Cl)cn1 [Compound 124],100,45,40,100,60,100,0,10,0,20,10,80,0,0,40,100,70,80,20,20,"Foxtail, Giant plant response rating [10, 21]: 30; Kochia plant response rating (kochia (Kochia scoparia) [11]; [21]): 50; Corn plant response rating (corn (Zea mays); [21]): 10; Ryegrass, Italian plant response rating [12, 21]: 0; Barnyardgrass plant response rating ([13]; 31 g ai/ha): 10; Barnyardgrass plant response rating ([13]; 125 g ai/ha): 60; Ragweed plant response rating [14, 21]: 10; Ragweed plant response rating [14, 22]: 20; Pigweed plant response rating [15, 21]: 70; Pigweed plant response rating [15, 22]: 100; Wheat plant response rating [16, 21]: 10; Wheat plant response rating [16, 22]: 10; Blackgrass plant response rating [17, 21]: 20; Blackgrass plant response rating [17, 22]: 60; Galium plant response rating [18, 21]: 70; Galium plant response rating [18, 22]: 90"
CN(CCCC(F)(F)F)c1c(C#N)cccc1Oc1ncc(Cl)cn1 [Compound 126],0,90,0,0,0,0,0,0,0,0,0,0,0,0,0,0,0,0,0,0,"Foxtail, Giant plant response rating [10, 21]: 0; Kochia plant response rating (kochia (Kochia scoparia) [11]; [21]): 0; Corn plant response rating (corn (Zea mays); [21]): 0; Ryegrass, Italian plant response rating [12, 21]: 0; Barnyardgrass plant response rating ([13]; 31 g ai/ha): 0; Barnyardgrass plant response rating ([13]; 125 g ai/ha): 0; Ragweed plant response rating [14, 21]: 0; Ragweed plant response rating [14, 22]: 0; Pigweed plant response rating [15, 21]: 0; Pigweed plant response rating [15, 22]: 10; Wheat plant response rating [16, 21]: 0; Wheat plant response rating [16, 22]: 0; Blackgrass plant response rating [17, 21]: 0; Blackgrass plant response rating [17, 22]: 0; Galium plant response rating [18, 21]: 0; Galium plant response rating [18, 22]: 0"
CCCCC(C#N)c1ccccc1Oc1ncc(Cl)cn1 (stereo not drawn) [Compound 129],80,45,40,90,100,100,30,100,20,60,70,100,0,0,90,100,100,100,20,60,"Foxtail, Giant plant response rating [10, 23]: 20; Kochia plant response rating (kochia (Kochia scoparia) [11]; [23]): 40; Corn plant response rating (corn (Zea mays); [23]): 20; Ryegrass, Italian plant response rating [12, 23]: 0; Barnyardgrass plant response rating ([13]; 31 g ai/ha): 20; Barnyardgrass plant response rating ([13]; 125 g ai/ha): 100; Ragweed plant response rating [14, 23]: 0; Ragweed plant response rating [14, 22]: 0; Pigweed plant response rating [15, 23]: 20; Pigweed plant response rating [15, 22]: 70; Wheat plant response rating [16, 23]: 0; Wheat plant response rating [16, 22]: 10; Blackgrass plant response rating [17, 23]: 20; Blackgrass plant response rating [17, 22]: 80; Galium plant response rating [18, 23]: 30; Galium plant response rating [18, 22]: 90"
N#Cc1cccc(Oc2ncc(Cl)cn2)c1COCC(F)(F)F [Compound 131],90,15,15,80,0,90,10,100,0,20,0,100,0,0,90,100,20,90,30,20,"Foxtail, Giant plant response rating [10, 23]: 0; Kochia plant response rating (kochia (Kochia scoparia) [11]; [23]): 40; Corn plant response rating (corn (Zea mays); [23]): 20; Ryegrass, Italian plant response rating [12, 23]: 0; Barnyardgrass plant response rating ([13]; 31 g ai/ha): 0; Barnyardgrass plant response rating ([13]; 125 g ai/ha): 10; Ragweed plant response rating [14, 23]: 0; Ragweed plant response rating [14, 22]: 0; Pigweed plant response rating [15, 23]: 50; Pigweed plant response rating [15, 22]: 80; Wheat plant response rating [16, 23]: 0; Wheat plant response rating [16, 22]: 20; Blackgrass plant response rating [17, 23]: 0; Blackgrass plant response rating [17, 22]: 0; Galium plant response rating [18, 23]: 20; Galium plant response rating [18, 22]: 50"
